Patent US9017985B2, “Photosynthetic microorganisms enriched in selenium using selenohydroxy acid compounds, used thereof in nutrition, cosmetics and pharmacy” (Metabolium, priority 2008, dated 2015)

Tests used:
[1] = diet supplementation; cited from earlier work
[2] = test system: Chlorella vulgaris SAG211-11B; test: Selenium enrichment of Chlorella vulgaris microalga cultured with a selenium source, mixotrophic conditions; analysis of selenium components; type: cell-based; details: 20 mgSe/l added once in exponential growth phase; 7 days incubation; mean of triplicate
Procedure: In these tests, the strain used is a strain of Chlorella vulgaris SAG211-11B: an axenic strain originating from the SAG collection of the University of Göttingen (SAG: Sammlung von Algenkulturen der Universität Göttingen [Collection of Alga Cultures of the University of Göttingen]) which was cultured under mixotrophic conditions in the following medium:
(§1) The pH was adjusted to 7.2 and the medium was autoclaved at 121° C. for 15 minutes.
The organic source of selenium, namely 2-hydroxy-4-methylselenobutanoic acid (THD-177, Tetrahedron SAS, France, CAS: 873660-49-2) was administered at a concentration of 20 mg/l on a selenium equivalent basis, i.e. 50 mg/l of 2-hydroxy-4-methylselenobutanoic acid.
The inorganic selenium source ([…], sodium selenite) was administered at a concentration of 20 mg/l on a selenium equivalent basis, i.e. 43.9 mg/l of sodium selenite.
The compound containing selenium was added just one time in the exponential growth phase of the Chlorella vulgaris strain (i.e. 3 days after the inoculation).
(§2) After incubation for 7 days, the medium was filtered through a 0.2 micron Nalgene membrane (Ref a-PES, diameter 90 mm), and the cell retentate was rinsed with physiological saline. The wet cell mass was lyophilized for analysis of the constituents containing selenium (total selenium, selenomethionine and sodium selenite).
(§3) The total selenium was assayed by ICP coupled to detection by mass, after mineralization of the sample. The speciation of the selenium was carried out by high performance liquid chromatography coupled to tandem mass detection, after enzyme digestion of the sample, according to the method described by Lobinsky et al., in Mester, Z. et al. (2006) Annal. Bioanal. Chem. 385: 168-180.
Table 1 below indicates the average values, on a selenium equivalent basis, obtained in triplicate for incubation times of 7 days.

[3] = test system: Arthrospira platensis 3054-E0001; test: Selenium enrichment of Arthrospira platensis microalga cultured with a selenium source, autotrophic conditions; analysis of selenium components; type: cell-based; details: 25 mgSe/l added once just after inoculation (T=0); 10 days incubation; mean of triplicate
Procedure: In these tests, the strain used is a strain of Arthrospira platensis 3054-E0001.
The 3054-50001 strain was cultured under autotrophic conditions in the following medium:
as §1
The organic source of selenium, namely 2-hydroxy-4-methylselenobutanoic acid (THD-177, Tetrahedron SAS, France, CAS: 873660-49-2) was administered at a concentration of 25 mg/l on a selenium equivalent basis, i.e. 62.5 mg/l of 2-hydroxy-4-methylselenobutanoic acid.
The inorganic selenium source ([…], sodium selenite) was administered at a concentration of 25 mg/l on a selenium equivalent basis, i.e. 54.4 mg/l of sodium selenite.
The compound containing selenium was added just one time, just after the inoculation with the Arthrospira platensis strain (i.e. T=0).
as §2, with “10” for “7”, “cell pellet” for “medium”, “membrane,” for “membrane (Ref a-PES, diameter 90 mm),”
as §3
Table 2 below indicates the average values, on a selenium equivalent basis, obtained in triplicate for incubation times of 10 days.
In these tests, the strain used is a strain of Arthrospira platensis 3054-E0001. […]

In the case of `C[Se]CC[C@H](N)C(=O)O` [L(+)-selenomethionine], the “Toxicity compared with an intake in the form of sodium selenite” value [1] is given as “much less toxic”.

In the case of `O=[Se](O)O` [NaSe, sodium selenite], the “Se(IV)” value [2] is reported as 4.1 ± 0.4 mgSe/kg biomass, the SeMethionine [2] is reported as 29 ± 2 mgSe/kg biomass and the “Total Se” value [2] is reported as 144 ± 5 mgSe/kg biomass. For the same compound, the “Se(IV)” value [3] was 5.1 ± 0.3 mgSe/kg biomass, the SeMethionine [3] was 13 ± 3 mgSe/kg biomass and the “Total Se” value [3] was 177 ± 2 mgSe/kg biomass.
